Data on 35 compounds can be found in patent US20220259193A1, “KCNT1 INHIBITORS AND METHODS OF USE” (Praxis Precision Medicines, Inc., priority 2019, published 2022).

The target of the test is T1, KCNT1 (KNa1.1, Slack) (Homo sapiens, UniProt Q5JUK3).
T1 construct: expressed in transfected cells; host or cells: HEK-TREX (tetracycline-inducible HEK cell line)
T1 sequence (Q5JUK3 1-1230): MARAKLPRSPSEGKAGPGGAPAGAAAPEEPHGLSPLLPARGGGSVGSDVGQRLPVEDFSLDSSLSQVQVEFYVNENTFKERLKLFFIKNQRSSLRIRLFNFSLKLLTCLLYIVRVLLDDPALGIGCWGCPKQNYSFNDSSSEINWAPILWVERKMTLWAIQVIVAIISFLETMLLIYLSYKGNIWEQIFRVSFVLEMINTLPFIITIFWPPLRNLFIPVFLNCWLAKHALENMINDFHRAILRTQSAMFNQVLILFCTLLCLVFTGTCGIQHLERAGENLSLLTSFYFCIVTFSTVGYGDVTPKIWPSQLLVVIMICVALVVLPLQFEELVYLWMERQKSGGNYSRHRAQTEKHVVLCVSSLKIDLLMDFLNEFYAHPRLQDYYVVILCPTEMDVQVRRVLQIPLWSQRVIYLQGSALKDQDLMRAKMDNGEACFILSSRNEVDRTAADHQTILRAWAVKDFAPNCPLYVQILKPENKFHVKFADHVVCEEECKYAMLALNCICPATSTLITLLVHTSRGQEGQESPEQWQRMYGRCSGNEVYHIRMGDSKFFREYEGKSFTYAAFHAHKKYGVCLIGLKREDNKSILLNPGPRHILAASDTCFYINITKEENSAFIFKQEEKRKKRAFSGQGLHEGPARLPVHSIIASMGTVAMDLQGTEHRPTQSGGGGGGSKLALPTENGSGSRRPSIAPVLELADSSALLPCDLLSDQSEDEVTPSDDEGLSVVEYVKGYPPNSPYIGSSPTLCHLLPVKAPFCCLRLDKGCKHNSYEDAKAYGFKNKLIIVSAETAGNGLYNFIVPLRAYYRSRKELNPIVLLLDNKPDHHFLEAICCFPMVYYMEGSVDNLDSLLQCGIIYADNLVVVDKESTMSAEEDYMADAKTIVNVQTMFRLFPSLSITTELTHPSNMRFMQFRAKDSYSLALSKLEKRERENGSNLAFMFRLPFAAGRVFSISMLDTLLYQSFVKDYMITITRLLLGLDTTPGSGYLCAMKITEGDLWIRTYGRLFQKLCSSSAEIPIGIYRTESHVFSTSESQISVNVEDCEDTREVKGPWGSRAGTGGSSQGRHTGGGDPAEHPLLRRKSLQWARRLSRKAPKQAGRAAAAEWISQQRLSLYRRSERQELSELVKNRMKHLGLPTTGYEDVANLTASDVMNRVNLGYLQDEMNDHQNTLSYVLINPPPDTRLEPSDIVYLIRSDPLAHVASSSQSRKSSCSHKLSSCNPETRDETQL
The experiment in a line: KCNT1 patch clamp assay (SyncroPatch 384PE automated patch clamp). As to conditions: tetracycline inducible HEK-TREX cell line; perforated patch; step from −80 mV to 0 mV; room temperature; read-out: KCNT1-WT IC50. Format: cell-based. The method, then: KCNT1—Patch Clamp Assay Inhibition of KCNT1 (KNa1.1, Slack) was evaluated using a tetracycline inducible cell line (HEK-TREX). Currents were recorded using the SyncroPatch 384PE automated, patch clamp system. Pulse generation and data collection were performed with PatchController384 V1.3.0 and DataController384 V1.2.1 (Nanion Technologies). The access resistance and apparent membrane capacitance were estimated using built-in protocols. Current were recorded in perforated patch mode (10 μM escin) from a population of cells. […] The cells were allowed to recover in the cell hotel prior to experimentation. Currents were recorded at room temperature. […] The extracellular solution was used as the wash, reference and compound delivery solution. […] Escin is made at a 5 mM stock in water, aliquoted, and stored at −20° C. The compound plate was created at 2× concentrated in the extracellular solution. The compound was diluted to 1:2 when added to the recording well. The amount of DMSO in the extracellular solution was held constant at the level used for the highest tested concentration. A holding potential of −80 mV with a 100 ms step to 0 mV was used. […] The average mean current from 3 sweeps was calculated and the % inhibition of each compound was calculated. The % Inhibition as a function of the compound concentration was fit with a Hill equation to derive IC50, slope, min and max parameters.
In general terms: In patch-clamp work, channel activity is measured electrically.
Consider `COC1(c2cc(-c3noc([C@H](C)NC(=O)c4cc(C(F)(F)F)nn4C)n3)ccn2)CC1` [Compound 263, (S)—N-(1-(3-(2-(1-methoxycyclopropyl)pyridin-4-yl)-1,2,4-oxadiazol-5-yl)ethyl)-1-methyl-3-(trifluoromethyl)-1H-pyrazole-5-carboxamide], for which the IC50 (commonly the midpoint of a concentration-inhibition curve) lay in the range of 1 to 20 µM.
The value for `Cn1nc(C2CC2)cc1C(=O)NC(COCc1ccccc1)c1nc(-c2cccc(F)c2)no1` (centres unmarked) [Compound 58, N-[2-benzyloxy-1-[3-(3-fluorophenyl)-1,2,4-oxadiazol-5-yl]ethyl]-5-cyclopropyl-2-methyl-pyrazole-3-carboxamide] was 1 to 20 µM; that for `CCC(NC(=O)c1cc(C2CC2)nn1C)c1nc(-c2cccc(F)c2)no1` (centres unmarked) [Compound 48] was ≤ 1 µM.
The same measure for `C[C@H](NC(=O)c1ccn(Cc2ccccc2)n1)c1nc(-c2ccnc(C3CC3)c2)no1` [Compound 306, 1-benzyl-N-[(1S)-1-[3-(2-cyclopropyl-4-pyridyl)-1,2,4-oxadiazol-5-yl]ethyl]pyrazole-3-carboxamide]: ≤ 1 µM; for `Cn1nc(C(F)(F)F)cc1C(=O)NC1(c2nc(-c3cccc(F)c3)no2)COC1` [Compound 119]: ≤ 1 µM.
In the case of `Cc1nn(C(C)(C)C)cc1C(=O)N[C@@H](C)c1nc(-c2cccc(F)c2)no1` [Compound 150], the IC50 was ≤ 1 µM.
For the compound `Cc1nn(C2CCOCC2)cc1C(=O)N[C@@H](C)c1nc(-c2cccc(F)c2)no1` [Compound 152], the half-maximal inhibitory concentration (IC50) lay in the range of 1 to 20 µM.
The value for `C[C@H](NC(=O)c1cc(C(F)(F)F)nn1CC(=O)N1CCCC1)c1nc(-c2ccnc(C(F)(F)F)c2)no1` [Compound 249, (S)-1-(2-oxo-2-(pyrrolidin-1-yl)ethyl)-3-(trifluoromethyl)-N-(1-(3-(2-(trifluoromethyl)pyridin-4-yl)-1,2,4-oxadiazol-5-yl)ethyl)-1H-pyrazole-5-carboxamide] was ≤ 1 µM.
The value for `CC(NC(=O)c1cc(C2CC2)nn1C)c1nc(-c2ccc(F)cc2)no1` (centres unmarked) [Compound 8] was 1 to 20 µM; that for `C[C@H](NC(=O)c1cn(C)nc1C(F)F)c1nc(-c2ccnc(C(F)(F)F)c2)no1` [Compound 235] was ≤ 1 µM; that for `Cc1nn(C(C)C)cc1C(=O)NC(C)c1nc(-c2ccc(C(F)(F)F)cc2)no1` (centres unmarked) [Compound 98] was 1 to 20 µM.
Turning to `CC(C)C(NC(=O)c1cc(C2CC2)nn1C)c1nc(-c2cccc(F)c2)no1` (centres unmarked) [Compound 45], the IC50 is ≤ 1 µM.
Consider `Cc1nn(CC(F)(F)F)cc1C(=O)N[C@@H](C)c1nc(-c2cccc(F)c2)no1` [Compound 164], for which the IC50 lay in the range of 1 to 20 µM.
For the compound `C[C@H](NC(=O)OCc1ccccc1)c1nc(-c2ccnc(C3CC3)c2)no1` [Compound 273], the IC50 is ≤ 1 µM.
On to `Cn1nc(C(F)(F)F)cc1C(=O)NC(CNS(C)(=O)=O)c1nc(-c2cccc(F)c2)no1` (centres unmarked) [Compound 169], for which the IC50 fell in the range of 1 to 20 µM.
The value for `C[C@H](NC(=O)c1cc(C(F)F)nn1C)c1nc(-c2ccnc(C3CCCC3)c2)no1` [Compound 308, (S)—N-(1-(3-(2-cyclopentylpyridin-4-yl)-1,2,4-oxadiazol-5-yl)ethyl)-3-(difluoromethyl)-1-methyl-1H-pyrazole-5-carboxamide] was ≤ 1 µM; that for `CNC(=O)C[C@@H](NC(=O)c1cc(C(F)(F)F)nn1C)c1nc(-c2cccc(F)c2)no1` (single isomer, unassigned) [Compound 114] was ≥ 20 µM.
The value for `CC(C)OC(=O)N[C@@H](C)c1nc(-c2ccnc(C3CC3)c2)no1` [Compound 277] was 1 to 20 µM; that for `C[C@H](NC(=O)OC(C)(C)C)c1nc(-c2ccnc(C3(C)CC3)c2)no1` [Compound 272, tert-butyl (S)-(1-(3-(2-(1-methylcyclopropyl)pyridin-4-yl)-1,2,4-oxadiazol-5-yl)ethyl)carbamate] was 1 to 20 µM; that for `C[C@H](NC(=O)c1cc(C(F)(F)F)nn1C)c1nc(-c2ccnc(C3CCC3)c2)no1` (single isomer, unassigned) [Compound 278] was ≤ 1 µM.
The same measure for `CC(NC(=O)c1cc(C2CC2)nn1C)c1nc(-c2c(F)cccc2F)no1` (centres unmarked) [Compound 7]: ≥ 20 µM; for `Cc1nn(C(C)C)cc1C(=O)N[C@@H](C)c1nc(-c2cccc(F)c2)no1` [Compound 153]: ≤ 1 µM; for `Cn1nc(C(F)(F)F)cc1C(=O)NC(CC(=O)N1CC(O)C1)c1nc(-c2cccc(F)c2)no1` (centres unmarked) [Compound 123]: ≥ 20 µM.
For `CC(NC(=O)c1cc(C(F)(F)F)nn1C)c1nc(-c2cccc(S(C)(=O)=O)c2)no1` (centres unmarked) [Compound 179, 1-methyl-N-(1-(3-(3-(methylsulfonyl)phenyl)-1,2,4-oxadiazol-5-yl)ethyl)-3-(trifluoromethyl)-1H-pyrazole-5-carboxamide], the IC50 was in the range of 1 to 20 µM.
The same measure for `COC1(c2cc(-c3noc([C@H](C)NC(=O)OC(C)(C)C)n3)ccn2)CC1` [Compound 262, tert-butyl (S)-(1-(3-(2-(1-methoxycyclopropyl)pyridin-4-yl)-1,2,4-oxadiazol-5-yl)ethyl)carbamate]: 1 to 20 µM; for `CC(=O)NC[C@@H](NC(=O)c1cc(C(F)(F)F)nn1C)c1nc(-c2cccc(F)c2)no1` [Compound 137]: 1 to 20 µM; for `CC(NC(=O)c1cc(C(F)(F)F)nn1C(F)F)c1nc(-c2cccc(Cl)c2)no1` (centres unmarked) [Compound 73]: ≤ 1 µM.
Consider `Cc1cc(C(=O)N[C@@H](C)c2nc(-c3ccnc(C(F)(F)F)c3)no2)n(C)n1` [Compound 252], for which the IC50 was 1 to 20 µM.
The value for `Cn1nc(C(F)(F)F)cc1C(=O)NCc1nc(-c2ccnc(C3CC3)c2)no1` [Compound 301, N-[[3-(2-cyclopropyl-4-pyridyl)-1,2,4-oxadiazol-5-yl]methyl]-2-methyl-5-(trifluoromethyl)pyrazole-3-carboxamide] was ≤ 1 µM; that for `COC(=O)c1cccc(-c2noc(C(C)NC(=O)c3cc(C(F)(F)F)nn3C)n2)c1` (centres unmarked) [Compound 181, methyl 3-(5-(1-(1-methyl-3-(trifluoromethyl)-1H-pyrazole-5-carboxamido)ethyl)-1,2,4-oxadiazol-3-yl)benzoate] was ≤ 1 µM.
As for `C[C@H](NC(=O)c1cn(C)nc1C1CCOCC1)c1nc(-c2cccc(F)c2)no1` [Compound 166], the IC50 fell in the range of 1 to 20 µM.
The value for `C[C@H](NC(=O)c1cc(C(F)(F)F)nn1C)c1nc(-c2ccnc(N3CC(F)(F)C3)c2)no1` [Compound 222, (S)—N-(1-(3-(2-(3,3-difluoroazetidin-1-yl)pyridin-4-yl)-1,2,4-oxadiazol-5-yl)ethyl)-1-methyl-3-(trifluoromethyl)-1H-pyrazole-5-carboxamide] was ≤ 1 µM.
`Cc1nn(-c2ccc(F)cc2)cc1C(=O)N[C@@H](C)c1nc(-c2cccc(F)c2)no1` [Compound 154]: the IC50 was ≤ 1 µM.
The same measure for `Cc1nn(C2CC2)cc1C(=O)N[C@@H](C)c1nc(-c2cccc(F)c2)no1` [Compound 161]: 1 to 20 µM; for `Cc1ccnc(-c2noc([C@H](C)NC(=O)OC(C)(C)C)n2)c1` [Compound 285, tert-butyl (S)-(1-(3-(4-methylpyridin-2-yl)-1,2,4-oxadiazol-5-yl)ethyl)carbamate]: ≥ 20 µM.
